{"source": "ChEMBL document CHEMBL1127366", "about": "“Structure--activity relationships of sialyl Lewis x-containing oligosaccharides. 1. Effect of modifications of the fucose moiety” (J Med Chem, 1994)", "biological_target": "T1, E-selectin (Homo sapiens, UniProt P16581)", "T1 sequence (P16581 whole entry)": "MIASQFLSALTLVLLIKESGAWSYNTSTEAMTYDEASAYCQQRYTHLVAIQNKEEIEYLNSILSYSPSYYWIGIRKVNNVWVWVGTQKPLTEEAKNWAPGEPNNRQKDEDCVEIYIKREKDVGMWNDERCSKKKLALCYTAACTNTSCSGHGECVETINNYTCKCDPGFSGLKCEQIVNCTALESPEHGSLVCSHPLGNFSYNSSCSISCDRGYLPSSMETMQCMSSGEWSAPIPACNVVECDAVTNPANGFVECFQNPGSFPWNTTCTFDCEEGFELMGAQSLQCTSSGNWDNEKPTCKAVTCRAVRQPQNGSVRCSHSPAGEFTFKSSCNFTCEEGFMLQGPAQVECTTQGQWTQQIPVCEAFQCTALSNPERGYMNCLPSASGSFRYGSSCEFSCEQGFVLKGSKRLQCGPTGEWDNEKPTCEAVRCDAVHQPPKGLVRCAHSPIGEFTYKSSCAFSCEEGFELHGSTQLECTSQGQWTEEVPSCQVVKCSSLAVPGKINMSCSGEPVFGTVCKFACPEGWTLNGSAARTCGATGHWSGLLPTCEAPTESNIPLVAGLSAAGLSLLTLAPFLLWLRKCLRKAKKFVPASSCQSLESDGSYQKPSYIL", "test": "Tested for inhibition of cell adhesion of HL-60 containing SLeX to purified recombinant human E-selectin", "data": [{"compound": "CCO[C@@H]1O[C@@H](CO)[C@H](O)[C@H](O[C@@H]2O[C@@H](CO)[C@@H](O[C@@H]3O[C@@H](CO)[C@H](O)[C@H](O[C@]4(C(=O)ON)C[C@@H](O)[C@@H](NC(C)=O)C([C@H](O)[C@H](O)CO)O4)[C@@H]3O)[C@H](O[C@@H]3OC[C@@H](O)[C@H](O)[C@@H]3O)[C@@H]2NC(C)=O)[C@@H]1O", "note": "(stereo partly specified)", "values": [{"measurement": "IC50", "result": 5, "unit": "mM"}]}]}
